From US20230381163A1, “DABIGATRAN COMPOSITIONS AND METHODS OF TREATING AGE-RELATED MACULAR DEGENERATION” (The United States Government As Represented By The …, priority 2022, published 2023) come the findings set out here.

The subject of one assay is ARPE-19 cell monolayers. In words: Transepithelial resistance (TER) of ARPE-19 monolayers. The format is cell-based, human. Here is the method: (§1) Cell culture experiments: Cells. […] Frontiers in Aging Neuroscience 9).
Thrombin reduces barrier function in RPE cells and induces CTGF expression and VEGF secretion. […] Thrombin is a serine-protease and is a known contributor to the damage of the blood-brain barrier (Machida, T., et al. (2017). PLoS One 12, e0177447). To examine the effects of thrombin on the blood-retina barrier (i.e., TER), dose- (0.5-10.0 U/ml) and time- (4 and 24 hrs) dependent treatments were performed on stable ARPE-19 cell monolayers, and treatment effects on TER levels to TER at baseline (serum free media/SFM before treatment, 0 hrs) (FIG. 2) were compared.

The subject of assay [1] is VEGF secretion in ARPE-19 cells. In words: VEGF secretion into apical supernatant of ARPE-19 monolayers (ELISA). The format is cell-based, human. Here is the method: as §1
VEGF ELISA. VEGF in the supernatant was measured using the Quantikine® Human VEGF Immunoassay (R & D System) according to the manufacturer's protocol. In brief, 200 μl of standard/sample was mixed with 50 μl of assay diluent and added to the plate precoated with the capture antibody. After washing, 200 μl of the VEGF detection antibody (polyclonal antibody specific for human VEGF conjugated to horseradish peroxidase) was added, followed by freshly prepared substrate reagents (stabilized hydrogen peroxide and tetramethylbenzidine). The reaction was terminated using 50 μl of stop solution and absorbance was measured at λ1 450 nm with wavelength correction λ2 at 540 nm. VEGF concentration of samples were calculated comparing the absorbance with the standards and converted into fold change considering the serum-free condition as 1 in the scale.

The test system of assay [2] is CTGF expression in ARPE-19 cells. In words: Thrombin-induced CTGF expression in ARPE-19 cell lysates (western blot). Particulars: for reduction of thrombin-induced CTGF expression: thrombin 1 U/mL. On the technique in general: A western blot detects proteins with antibodies after separation by electrophoresis.
Description: Cell culture experiments: Cells. Human ARPE-19 (ATCC® CRL-2302™; American Type Culture Collection, Manassas VA) cells were cultured in DMEM cell culture media (Gibco/ThermoFisher Scientific) containing high glucose DMEM with D-glucose (4.5 g/L), L-glutamine, sodium pyruvate (110 mg/L), Penicillin and Streptomycin (1×) and 10% of FBS. Cells (<passage 10 after purchase) were expanded in T75 cell culture flasks at 37° C., in the presence of 5% CO2. Confluent cells were trypsinized with 0.05% trypsin (Gibco), and equal numbers of cells were seeded on 6-well transwell filters/plate (Costar). […] Integrity of the cell monolayer was assessed by Transepithelial resistance (TER) measurements using an EVOM volt-ohmmeter (World Precision Instruments) four weeks after plating. RPE monolayers with a stable TER repeatedly measured as ˜40-45 S2 cm 2 were used for these experiments.
Treatments. Prior to each experiment, the cell monolayer was washed with serum-free medium (SFM) and maintained in SFM for 24 hours. […] Treatments were performed on the apical side of the transwell membrane, which represents the retinal side of the RPE in vivo. Some of the cells were treated with thrombin (EMD Millipore Corp), complement components C3a, C5a (Complement Technology), thrombin agonist PAR1-AP (Sigma-Aldrich; amino acid sequence SFLLRN (SEQ ID NO: 1)), thrombin inhibitor dabigatran etexilate (Sigma-Aldrich), C3 inhibitor compstatin (R&D Systems), AP inhibitor TT30 (Alexion Therapeutics), a protease inhibitor alpha1-antitrypsin (Sigma-Aldrich), and the thrombin receptor proteinase activated receptor 1 inhibitor SCH 79797 (Sigma-Aldrich). Treatments were performed 60 min prior to the addition of thrombin. Cell culture supernatant and lysate were collected after specific time points or after 24 hrs of treatment and stored at −20° C. for later use.
Western blotting. […] Cell lysates were collected in RIPA cell lysis buffer containing 150 mM NaCl, 1.0% IGEPAL® CA-630, 0.5% sodium deoxycholate, 0.1% SDS, 50 mM Tris (pH 8.0) (Sigma-Aldrich) in presence of 1×protease inhibitor (Sigma-Aldrich). Equal amount of each samples were loaded on 4-20% Criterion™ TGX™ precast gels (Bio-Rad Laboratories, Inc.) (Annamalai, B., et al. (2020). Invest Ophthalmol Vis Sci 61, 45). Proteins were transferred to a nitrocellulose membrane and incubated in primary antibody followed by appropriate secondary antibodies coupled to peroxidase, followed by band development and detection using Clarity™ Western ECL blotting substrate (Bio-Rad Laboratories, Inc.) and chemiluminescent detection. Protein bands were scanned and densities quantified using ImageJ software. The following antibodies were used: C3a (1:1000; Complement Technology), C5a (1:1000; Abcam), connective tissue growth factor/CTGF (1:1000; Abcam), C3d anti-C3d (clone 11, 1:1000; generation of the antibody is described in (Thurman, J. M., et al. (2013). J Clin Invest 123, 2218-2230)), VEGF (1:1000, Santa Cruz Biotechnology, Inc.), β-actin (1:2000; Cell Signaling Technology) and concentrations selected based on the data sheet recommendations.
ARPE-19 cell monolayers were treated with thrombin (0.5-10 U/ml) and cell lysates were collected and analyzed for CTGF levels at 4 hrs post treatment by western blotting.
In a further assay the target is thrombin (Homo sapiens, UniProt P00734). The assay can be described thus: Thrombin activity in cell-free system. The conditions noted are these: 100 μM.
For a further assay, the system named is complement component C3. In words: Thrombin-mediated C3 cleavage in apical supernatants of ARPE-19 cells (western blot). The format is cell-based, human. The conditions noted are these: 100 μM. As for the experimental part:
Second, it was tested whether thrombin can cleave complement components (Huber-Lang, M., et al. (2006). Nat Med 12, 682-687; and Krisinger, M. J., et al. (2012). Blood 120, 1717-1725), specifically C3 and C5, producing cleavage products potentially different from those produced by classical convertases. To test the effects of thrombin on complement cleavage, the apical supernatants of treated ARPE-19 cell monolayers were analyzed by western blotting. Cleavage of C3α was evaluated using an antibody specific for C3a (FIG. 5A, left-hand blot). The C3a antibody detected C3, the C3α band as well as other fragments containing C3a. Thrombin caused a concentration dependent cleavage of complement component C3 (˜190 kDa), caused reduction of the 120 kDa C3a band and generation of a new 80 kDa fragment. Fragments at 32 kDa and 9-10 kDa with higher doses of thrombin treatment (FIG. 5A, 10 U/mL) were also observed. The 9-10 kDa band ran at the same molecular weight as purified C3a (FIG. 11). The reduction of the 120 kDa fragment was correlated with the generation of the 80 kDa fragment (FIG. 5B). The loss of the 120 kDa fragment was prevented by either dabigatran (10 μM) or the C3 inhibitor compstatin (100 μM), which inhibits complement both on cell membranes as well as in fluid phase, but not by TT30 (10 μM), which is an inhibitor that prevents membrane-bound AP activation (FIG. 5C). […]

As to thrombin, the “effect on TER” value in the assay with ARPE-19 cell monolayers (thrombin 0.5 U/mL, apical) is reported as “barely affected”; in the assay on ARPE-19 cell monolayers (thrombin 2.5 U/ml, 24 hrs) it was “significant damage to the epithelial barrier integrity”; with ARPE-19 cell monolayers (thrombin 5 U/ml and 10 U/ml, 4 hrs), “significant barrier function loss”. Further, the “increase of VEGF in apical supernatants” value in assay [1] (thrombin alone) turned out to be 2.5 fold. The “effect on CTGF expression” value in assay [2] (thrombin, 4 hrs, P<0.05) is on record as “significantly increased”.

On to “alpha1-antitrypsin: general (non-specific) protease inhibitor (Sigma-Aldrich)”, for which, in assay [2] (alpha1-antitrypsin 1 mg/mL), the “reduction of thrombin-induced CTGF expression” value worked out at 5.3 fold.

“C3a: complement component, anaphylatoxin (Complement Technology)”: the “effect on VEGF secretion” value in assay [1] (C3a, 260 nM) is “weak stimulator”.

For `CC[C@H](C)[C@H](N)C(=O)N[C@H]1CSSC[C@@H](C(=O)N[C@H](C(N)=O)[C@@H](C)O)NC(=O)[C@H](CCCN=C(N)N)NC(=O)[C@H](Cc2cnc[nH]2)NC(=O)[C@H](Cc2cnc[nH]2)NC(=O)CNC(=O)[C@H](Cc2c[nH]c3ccccc23)NC(=O)[C@H](CC(=O)O)NC(=O)[C@H](CCC(N)=O)NC(=O)[C@H](C(C)C)NC(=O)[C@H](C(C)C)NC1=O` [compstatin], at thrombin, the “effect on thrombin enzyme activity” value is listed as “did not affect”. Besides, in the assay on complement component C3, the “effect on thrombin-mediated loss of the 120 kDa C3 fragment” value was “prevented”. Also, in assay [1] (compstatin), the “effect on thrombin-induced VEGF secretion” value is on record as “partially reduce”. Further, the “effect on thrombin-induced CTGF expression” value in assay [2] (compstatin) is given as “partially reduce”.

For the molecule `CC(C)c1ccc(Cn2ccc3c4c(N)nc(NC5CC5)nc4ccc32)cc1` [SCH79797], the “effect on thrombin-induced VEGF secretion” value in assay [1] (SCH79797) was “reduced”. Moreover, the “reduction of thrombin-induced CTGF expression” value in assay [2] (SCH79797 250 μM) amounted to 1.7 fold.

B1: C5a: complement component, anaphylatoxin (Complement Technology) (protein, UniProt P01031 678-751, looked up)
C5a anaphylatoxin: TLQKKIEEIAAKYKHSVVKKCCYDGACVNNDETCEQRAARISLGPRCIKAFTECCVVASQLRANISHKDMQLGR
modifications: C5a anaphylatoxin
Consider B1, for which the “effect on VEGF secretion” value in assay [1] (C5a, 52 nM) is on record as “increasing VEGF levels to that identified by thrombin stimulation”.
